Reference: US6737383B1, “Herbicidal oxadiazolidines” (priority 1999, dated 2004)

Assays:
wheat = assay: Test B pre/postemergence wheat; type: in vivo, Triticum aestivum
How it was run: (§1)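 Test chemicals in a non-phytotoxic solvent mixture with surfactant were sprayed preemergence onto planted seeds and postemergence onto plants 2 to 18 cm tall (1- to 4-leaf stage). After twelve to sixteen days in a greenhouse, injury was visually rated against untreated controls from 0 (no effect) to 10 (complete control).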

smallflower flatsedge = assay: Test B flood test smallflower flatsedge; type: in vivo, Cyperus difformis
How it was run: (§2)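 Each value is a visual injury score relative to controls, with 10 meaning complete control and 0 no effect. Evaluation took place twelve to sixteen days after the 2-leaf-stage plants were treated and kept in the greenhouse.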

rice = assay: Test B flood test rice; type: in vivo, Oryza sativa
How it was run: as §2

surinam grass = assay: Test B pre/postemergence surinam grass; type: in vivo, Brachiaria decumbens
How it was run: as §1

wild oat = assay: Test B pre/postemergence wild oat; type: in vivo, Avena fatua
How it was run: as §1

giant foxtail = assay: Test B pre/postemergence giant foxtail; type: in vivo, Setaria faberii
How it was run: as §1

pigweed = assay: Test B pre/postemergence pigweed; type: in vivo, Amaranthus retroflexus
How it was run: as §1

morningglory = assay: Test B pre/postemergence morningglory; type: in vivo, Ipomoea hederacea
How it was run: as §1

blackgrass = assay: Test B pre/postemergence blackgrass; type: in vivo, Alopecurus myosuroides
How it was run: as §1

velvetleaf = assay: Test B pre/postemergence velvetleaf; type: in vivo, Abutilon theophrasti
How it was run: as §1

bamyardgrass = assay: Test B flood test barnyardgrass; type: in vivo, Echinochloa crus-galli
How it was run: as §2

purple nutsedge = assay: Test B pre/postemergence purple nutsedge; type: in vivo, Cyperus rotundus
How it was run: as §1

soybean = assay: Test B pre/postemergence soybean; type: in vivo, Glycine max
How it was run: as §1

bedstraw = assay: Test B pre/postemergence bedstraw; type: in vivo, Galium aparine
How it was run: as §1

cocklebur = assay: Test B pre/postemergence cocklebur; type: in vivo, Xanthium strumarium
How it was run: as §1

crabgrass = assay: Test B pre/postemergence crabgrass; type: in vivo, Digitaria sanguinalis
How it was run: as §1

[1] = Postemergence, Rate 62 g/ha, scale 0 to 10, 0 is no effect, 10 is complete control
[2] = Postemergence, Rate 250 g/ha, scale 0 to 10, 0 no effect, 10 complete control
[3] = Preemergence, Rate 62 g/ha, scale 0 to 10 (0 no effect, 10 complete control)
[4] = Preemergence, Rate 125 g/ha, scale 0 to 10 (0 no effect, 10 complete control)
[5] = Preemergence, Rate 250 g/ha, scale of 0 to 10 where 0 is no effect and 10 is complete control
[6] = Preemergence, Rate 500 g/ha, scale 0 (no effect) to 10 (complete control)
[7] = Rate 125 g/ha, Postemergence, scale 0 to 10, 0 no effect, 10 complete control
[8] = Rate 500 g/ha, Postemergence, scale 0 to 10, 0 no effect, 10 complete control
[9] = Rate 125 g/ha, Postemergence section (flood test species), scale 0 to 10, 0 no effect, 10 complete control
[10] = Rate 500 g/ha, listed under Postemergence (flood test species), scale 0 to 10, 0 no effect, 10 complete control
[11] = flood test, listed under Postemergence, Rate 250 g/ha, scale 0 to 10, 0 no effect, 10 complete control

Cc1cccc(C(C)C)c1-n1c(=O)on(C(=O)N(c2ccccc2)C(C)C)c1=O [Compound 66]
Wheat plant response rating (wheat; [1]): 0
Wheat plant response rating (wheat; [2]): 0
Wheat plant response rating (wheat; [3]): 0
Plant response rating, Wheat (wheat; [4]): 0
Plant response rating, Wheat (wheat; [5]): 0
Wheat plant response rating (wheat; [6]): 0
Wheat plant response rating (wheat; [7]): 0
Wheat plant response rating (wheat; [8]): 0
S. Flatsedge plant response rating (smallflower flatsedge; [1]): 0
S. Flatsedge plant response rating (smallflower flatsedge; [9]): 0
S. Flatsedge plant response rating (smallflower flatsedge; [10]): 3
S. Flatsedge plant response rating (smallflower flatsedge; [11]): 2
Rice plant response rating (rice; [1]): 0
Rice plant response rating (rice; [9]): 0
Rice plant response rating (rice; [10]): 0
Rice plant response rating (rice; [11]): 0
B. signalgrass plant response rating (surinam grass; [1]): 0
B. signalgrass plant response rating (surinam grass; [2]): 0
B. signalgrass plant response rating (surinam grass; [3]): 0
Plant response rating, B. signalgrass (surinam grass; [4]): 0
Plant response rating, B. signalgrass (surinam grass; [5]): 0
B. signalgrass plant response rating (surinam grass; [6]): 0
B. signalgrass plant response rating (surinam grass; [7]): 0
B. signalgrass plant response rating (surinam grass; Rate 500 g/ha, Postemergence, scale of 0 to 10 where 0 is no effect and 10 is complete control): 0
Wild oats plant response rating (wild oat; [1]): 0
Wild oats plant response rating (wild oat; [2]): 0
Wild oats plant response rating (wild oat; [3]): 0
Plant response rating, Wild oats (wild oat; [4]): 0
Plant response rating, Wild oats (wild oat; [5]): 0
Wild oats plant response rating (wild oat; [6]): 2
Wild oats plant response rating (wild oat; [7]): 0
Wild oats plant response rating (wild oat; [8]): 0
Giant foxtail plant response rating (giant foxtail; [1]): 0
Giant foxtail plant response rating (giant foxtail; [2]): 0
Giant foxtail plant response rating (giant foxtail; [3]): 4
Plant response rating, Giant foxtail (giant foxtail; [4]): 4
Plant response rating, Giant foxtail (giant foxtail; [5]): 6
Giant foxtail plant response rating (giant foxtail; [6]): 9
Giant foxtail plant response rating (giant foxtail; [7]): 0
Giant foxtail plant response rating (giant foxtail; [8]): 0
Redroot pigweed plant response rating (pigweed; [1]): 0
Redroot pigweed plant response rating (pigweed; [2]): 0
Redroot pigweed plant response rating (pigweed; [3]): 0
Plant response rating, Redroot pigweed (pigweed; [4]): 0
Plant response rating, Redroot pigweed (pigweed; [5]): 0
Redroot pigweed plant response rating (pigweed; [6]): 0
Redroot pigweed plant response rating (pigweed; [7]): 0
Redroot pigweed plant response rating (pigweed; [8]): 4
Morningglory plant response rating (morningglory; [1]): 0
Morningglory plant response rating (morningglory; [2]): 1
Morningglory plant response rating (morningglory; [3]): 0
Plant response rating, Morningglory (morningglory; [4]): 0
Plant response rating, Morningglory (morningglory; [5]): 0
Morningglory plant response rating (morningglory; [6]): 0
Morningglory plant response rating (morningglory; [7]): 1
Morningglory plant response rating (morningglory; [8]): 2
Blackgrass plant response rating (blackgrass; [1]): 0
Blackgrass plant response rating (blackgrass; [2]): 2
Blackgrass plant response rating (blackgrass; [3]): 0
Plant response rating, Blackgrass (blackgrass; [4]): 0
Plant response rating, Blackgrass (blackgrass; [5]): 0
Blackgrass plant response rating (blackgrass; [6]): 0
Blackgrass plant response rating (blackgrass; [7]): 0
Blackgrass plant response rating (blackgrass; [8]): 3
Velvetleaf plant response rating (velvetleaf; [1]): 0
Velvetleaf plant response rating (velvetleaf; [2]): 0
Velvetleaf plant response rating (velvetleaf; [3]): 0
Plant response rating, Velvetleaf (velvetleaf; [4]): 0
Plant response rating, Velvetleaf (velvetleaf; [5]): 0
Velvetleaf plant response rating (velvetleaf; [6]): 0
Velvetleaf plant response rating (velvetleaf; [7]): 0
Velvetleaf plant response rating (velvetleaf; [8]): 2
Barnyardgrass plant response rating (bamyardgrass; [1]): 0
Barnyardgrass plant response rating (bamyardgrass; [9]): 0
Barnyardgrass plant response rating (bamyardgrass; [10]): 3
Barnyardgrass plant response rating (bamyardgrass; [11]): 0
Nutsedge plant response rating (purple nutsedge; [1]): 0
Nutsedge plant response rating (purple nutsedge; [2]): 0
Nutsedge plant response rating (purple nutsedge; [3]): 0
Plant response rating, Nutsedge (purple nutsedge; [4]): 0
Nutsedge plant response rating (purple nutsedge; [6]): 6
Nutsedge plant response rating (purple nutsedge; [7]): 0
Nutsedge plant response rating (purple nutsedge; [8]): 0
Soybean plant response rating (soybean; [1]): 1
Soybean plant response rating (soybean; [2]): 2
Soybean plant response rating (soybean; [3]): 0
Plant response rating, Soybean (soybean; [4]): 0
Plant response rating, Soybean (soybean; [5]): 0
Soybean plant response rating (soybean; [6]): 0
Soybean plant response rating (soybean; [7]): 1
Soybean plant response rating (soybean; [8]): 3
Bedstraw plant response rating (bedstraw; [1]): 0
Bedstraw plant response rating (bedstraw; [2]): 0
Bedstraw plant response rating (bedstraw; [3]): 0
Plant response rating, Bedstraw (bedstraw; [4]): 0
Plant response rating, Bedstraw (bedstraw; [5]): 0
Bedstraw plant response rating (bedstraw; [6]): 0
Bedstraw plant response rating (bedstraw; [7]): 0
Bedstraw plant response rating (bedstraw; [8]): 2
Cocklebur plant response rating (cocklebur; [1]): 0
Cocklebur plant response rating (cocklebur; [2]): 0
Cocklebur plant response rating (cocklebur; [3]): 0
Plant response rating, Cocklebur (cocklebur; [4]): 0
Plant response rating, Cocklebur (cocklebur; [5]): 0
Cocklebur plant response rating (cocklebur; [6]): 0
Cocklebur plant response rating (cocklebur; [7]): 0
Cocklebur plant response rating (cocklebur; [8]): 0
Crabgrass plant response rating (crabgrass; [1]): 0
Crabgrass plant response rating (crabgrass; [2]): 0
Crabgrass plant response rating (crabgrass; [3]): 0
Plant response rating, Crabgrass (crabgrass; [4]): 2
Plant response rating, Crabgrass (crabgrass; [5]): 4
Crabgrass plant response rating (crabgrass; [6]): 8
Crabgrass plant response rating (crabgrass; [7]): 0
Crabgrass plant response rating (crabgrass; [8]): 0
